According to PubChem BioAssay (NCI):
Where “and” joins values, the source holds several entries; their conditions need not be identical. Equal entries are not always repeated.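 How tested: cells in 96-well plates exposed to compound for 48 hours at five concentrations. GI50: concentration for 50% inhibition of growth. At the TGI there is no net growth.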

How the values were obtained:
Assay in all cases: NCI-60 cell line screen, 48 h
[1] = tested on: DU-145 prostate
[2] = tested on: HL-60(TB) leukemia
[3] = tested on: CCRF-CEM leukemia
[4] = tested on: MALME-3M melanoma
[5] = tested on: HOP-92 NSCLC
[6] = tested on: HCC-2998 colon
[7] = tested on: TK-10 renal
[8] = tested on: A498 renal
[9] = tested on: IGROV1 ovarian
[10] = tested on: OVCAR-3 ovarian
[11] = tested on: OVCAR-8 ovarian
[12] = tested on: K-562 leukemia
[13] = tested on: MOLT-4 leukemia
[14] = tested on: COLO 205 colon
[15] = tested on: HS 578T breast
[16] = tested on: RPMI-8226 leukemia
[17] = tested on: SR leukemia
[18] = tested on: NCI-H460 lung
[19] = tested on: CAKI-1 renal
[20] = tested on: HT29 colon
[21] = tested on: UO-31 renal
[22] = tested on: UACC-62 melanoma
[23] = tested on: UACC-257 melanoma
[24] = tested on: OVCAR-4 ovarian
[25] = tested on: MDA-MB-435
[26] = tested on: KM12 colon
[27] = tested on: BT-549 breast
[28] = tested on: SN12C renal
[29] = tested on: NCI-H522 lung
[30] = tested on: NCI/ADR-RES ovarian

CC(C)(S)C(N)C(=O)O (configuration not stated)
GI50 [1]: 1.6 mM | TGI [1]: > 5 mM | GI50 [2]: 3.64 mM | TGI [2]: > 5 mM | GI50 [3]: 0.612 mM | TGI [3]: > 5 mM | GI50 [4]: 1.13 mM | TGI [4]: 3.4 mM and > 0.1 mM | GI50 [5]: 2.96 mM | TGI [5]: > 5 mM | GI50 [6]: 1.45 mM | TGI [6]: 4.34 mM | GI50 [7]: 2.61 mM | TGI [7]: > 5 mM | TGI [8]: > 0.1 mM | TGI [9]: > 0.1 mM | GI50 [10]: 1.25 mM | TGI [10]: 3.99 mM and > 0.1 mM | GI50 [11]: 3.45 mM | TGI [11]: > 5 mM | GI50 [12]: 2.39 mM | TGI [12]: > 5 mM | GI50 [13]: 3.04 mM | TGI [13]: > 5 mM | GI50 [14]: 1.18 mM | TGI [14]: 2.88 mM and > 0.1 mM | TGI [15]: > 0.1 mM | GI50 [16]: 3.83 mM | TGI [16]: > 5 mM | GI50 [17]: 1.84 mM | TGI [17]: > 5 mM | GI50 [18]: 0.937 mM | TGI [18]: 2.73 mM and > 0.1 mM | GI50 [19]: 0.983 mM | TGI [19]: 2.57 mM and > 0.1 mM | GI50 [20]: > 5 mM | TGI [20]: > 5 mM | GI50 [21]: > 5 mM | TGI [21]: > 5 mM | GI50 [22]: 4.76 mM | TGI [22]: > 5 mM | GI50 [23]: 4.86 mM | TGI [23]: > 5 mM | GI50 [24]: > 5 mM | TGI [24]: > 5 mM | GI50 [25]: 1.89 mM | TGI [25]: > 5 mM | GI50 [26]: 1.47 mM | TGI [26]: 4.71 mM and > 0.1 mM | GI50 [27]: 1.57 mM | TGI [27]: 4.11 mM and > 0.1 mM | GI50 [28]: > 5 mM | TGI [28]: > 5 mM | GI50 [29]: 4.6 mM | TGI [29]: > 5 mM | GI50 [30]: 3.65 mM | TGI [30]: > 5 mM
